# How the values were obtained:
# [1] = biological target: Cytochrome P450 2C9 (Homo sapiens, UniProt P11712)
# [2] = in vivo; conditions: beagle, dog, iv, 1 mg/kg
# Description: Half life in Beagle dog at 1 mg/kg, iv
# [3] = in vivo; conditions: cynomolgus monkey, iv, 1 mg/kg
# Description: Half life in cynomolgus monkey at 1 mg/kg, iv
# [4] = in vitro; conditions: human, Caco-2
# Description: Apparent permeability of the compound across apical to basolateral side in human Caco-2 cells at 10 uM
# [5] = in vivo; conditions: Sprague-Dawley, rat, po, 10 mg/kg
# [6] = biological target: Voltage-gated inwardly rectifying potassium channel KCNH2 (Homo sapiens, UniProt Q12809)
# Description: Inhibition of hERG transfected in CHO cells by patch clamp automated cellular electrophysiology analysis
# [7] = in vivo; conditions: CD-1, mouse, po, 10 mg/kg
# [8] = physchem; conditions: Fasted State Simulated Intestinal Fluid
# Description: Thermodynamic solubility of the compound in Fasted State Simulated Intestinal Fluid
# [9] = in vitro; conditions: mouse, hepatocytes
# Description: Intrinsic clearance in mouse hepatocytes
# [10] = in vivo; conditions: CD-1, mouse, po, 30 mg/kg
# [11] = in vivo; conditions: Beagle, dog, po, 10 mg/kg
# [12] = in vivo; conditions: CD-1, mouse, iv, 1 mg/kg
# Description: Half life in CD-1 mouse at 1 mg/kg, iv
# [13] = biological target: T1, Cytochrome P450 1A2 (Homo sapiens, UniProt P05177)
# T1 sequence (P05177 whole entry): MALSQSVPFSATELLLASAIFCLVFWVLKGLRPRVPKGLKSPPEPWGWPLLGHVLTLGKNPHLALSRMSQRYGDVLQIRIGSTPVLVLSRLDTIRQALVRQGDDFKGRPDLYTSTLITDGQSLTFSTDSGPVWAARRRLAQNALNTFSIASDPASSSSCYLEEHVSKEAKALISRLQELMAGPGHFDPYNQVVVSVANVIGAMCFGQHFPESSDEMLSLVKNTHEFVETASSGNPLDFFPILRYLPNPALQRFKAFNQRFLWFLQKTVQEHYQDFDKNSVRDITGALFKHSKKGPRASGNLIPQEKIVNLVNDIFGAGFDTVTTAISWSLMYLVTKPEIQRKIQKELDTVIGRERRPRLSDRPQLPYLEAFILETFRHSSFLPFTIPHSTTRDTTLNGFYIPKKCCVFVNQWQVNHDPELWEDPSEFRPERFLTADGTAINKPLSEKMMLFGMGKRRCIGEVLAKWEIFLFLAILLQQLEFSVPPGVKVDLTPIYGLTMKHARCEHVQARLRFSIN
# [14] = tested on: LoVo; experiment: animal or person; conditions: Mus musculus, po, 480 h, read-out: TGI
# [15] = in vivo; conditions: CD-1, mouse, iv, 1 mg/kg; remark: listed apart in the source
# Description: Volume of distribution at steady state in CD-1 mouse at 1 mg/kg, iv
# [16] = biological target: Phosphatidylinositol 4,5-bisphosphate 3-kinase catalytic subunit gamma isoform (Homo sapiens, UniProt P48736)
# Chain of Phosphatidylinositol 4,5-bisphosphate 3-kinase catalytic subunit gamma isoform (P48736 whole entry, canonical isoform): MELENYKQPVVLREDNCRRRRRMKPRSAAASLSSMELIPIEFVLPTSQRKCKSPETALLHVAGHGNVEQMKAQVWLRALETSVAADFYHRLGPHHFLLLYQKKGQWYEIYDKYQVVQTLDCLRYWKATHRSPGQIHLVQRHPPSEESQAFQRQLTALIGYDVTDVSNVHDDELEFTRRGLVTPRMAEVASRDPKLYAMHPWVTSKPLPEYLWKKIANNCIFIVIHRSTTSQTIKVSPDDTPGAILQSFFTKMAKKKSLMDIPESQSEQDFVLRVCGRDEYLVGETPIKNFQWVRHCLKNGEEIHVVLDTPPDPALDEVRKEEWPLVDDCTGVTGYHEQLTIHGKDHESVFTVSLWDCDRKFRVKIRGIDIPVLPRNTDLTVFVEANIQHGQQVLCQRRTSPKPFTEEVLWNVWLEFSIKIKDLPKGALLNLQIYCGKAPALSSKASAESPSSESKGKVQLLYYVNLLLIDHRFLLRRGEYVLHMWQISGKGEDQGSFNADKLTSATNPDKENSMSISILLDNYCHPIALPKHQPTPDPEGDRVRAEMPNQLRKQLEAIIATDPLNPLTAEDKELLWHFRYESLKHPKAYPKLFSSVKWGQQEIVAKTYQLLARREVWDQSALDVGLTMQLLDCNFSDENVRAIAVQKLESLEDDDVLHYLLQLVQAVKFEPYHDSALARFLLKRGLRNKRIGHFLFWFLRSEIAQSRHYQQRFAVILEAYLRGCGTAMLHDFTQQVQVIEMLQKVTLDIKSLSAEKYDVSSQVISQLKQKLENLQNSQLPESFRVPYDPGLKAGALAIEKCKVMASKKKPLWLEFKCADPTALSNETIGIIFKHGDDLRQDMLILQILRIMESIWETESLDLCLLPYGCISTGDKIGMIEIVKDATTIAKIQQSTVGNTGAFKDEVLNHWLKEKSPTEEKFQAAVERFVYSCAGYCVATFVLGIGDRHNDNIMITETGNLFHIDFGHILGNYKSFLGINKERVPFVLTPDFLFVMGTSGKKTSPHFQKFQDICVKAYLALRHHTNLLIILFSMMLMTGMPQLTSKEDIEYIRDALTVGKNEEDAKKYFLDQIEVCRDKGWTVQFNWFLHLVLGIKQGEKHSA
# Description: Inhibition of PI3Kgamma (unknown origin) by ADP-Glo assay
# [17] = in vitro; conditions: rat, plasma
# Description: Protein binding in rat plasma assessed as free fraction at 5 uM incubated for 5 hrs by equilibrium dialysis method
# [18] = in vivo; conditions: beagle, dog, iv, 1 mg/kg; remark: listed apart in the source
# Description: Volume of distribution at steady state in Beagle dog at 1 mg/kg, iv
# [19] = in vitro; conditions: cynomolgus monkey, hepatocytes
# Description: Intrinsic clearance in cynomolgus monkey hepatocytes
# [20] = in vivo; conditions: cynomolgus monkey, po, 10 mg/kg
# [21] = in vivo; conditions: cynomolgus monkey, po, 10 mg/kg; remark: listed apart in the source
# [22] = biological target: T2, Cytochrome P450 2C8 (Homo sapiens, UniProt P10632)
# T2 sequence (P10632 whole entry): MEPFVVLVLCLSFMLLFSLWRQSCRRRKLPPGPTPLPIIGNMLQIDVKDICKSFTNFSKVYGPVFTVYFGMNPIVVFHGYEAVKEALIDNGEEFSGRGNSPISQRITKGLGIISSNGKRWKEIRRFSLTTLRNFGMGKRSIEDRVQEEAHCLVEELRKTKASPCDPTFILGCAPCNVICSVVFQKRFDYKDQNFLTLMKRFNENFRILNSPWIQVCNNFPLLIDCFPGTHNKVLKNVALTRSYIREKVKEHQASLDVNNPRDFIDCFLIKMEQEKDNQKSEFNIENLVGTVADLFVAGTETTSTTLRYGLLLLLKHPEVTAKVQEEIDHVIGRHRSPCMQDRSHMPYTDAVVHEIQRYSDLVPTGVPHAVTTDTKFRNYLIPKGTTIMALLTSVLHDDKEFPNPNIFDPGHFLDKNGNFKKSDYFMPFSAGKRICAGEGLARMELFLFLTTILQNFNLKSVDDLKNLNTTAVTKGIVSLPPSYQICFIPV
# Description: Inhibition of CYP2C8 in human liver microsomes by LC-MS/MS analysis
# [23] = biological target: CYP3A4 (Homo sapiens, UniProt P08684); experiment: in vitro; conditions: human liver microsomes, probe midazolam
# Chain of CYP3A4 (P08684 whole entry): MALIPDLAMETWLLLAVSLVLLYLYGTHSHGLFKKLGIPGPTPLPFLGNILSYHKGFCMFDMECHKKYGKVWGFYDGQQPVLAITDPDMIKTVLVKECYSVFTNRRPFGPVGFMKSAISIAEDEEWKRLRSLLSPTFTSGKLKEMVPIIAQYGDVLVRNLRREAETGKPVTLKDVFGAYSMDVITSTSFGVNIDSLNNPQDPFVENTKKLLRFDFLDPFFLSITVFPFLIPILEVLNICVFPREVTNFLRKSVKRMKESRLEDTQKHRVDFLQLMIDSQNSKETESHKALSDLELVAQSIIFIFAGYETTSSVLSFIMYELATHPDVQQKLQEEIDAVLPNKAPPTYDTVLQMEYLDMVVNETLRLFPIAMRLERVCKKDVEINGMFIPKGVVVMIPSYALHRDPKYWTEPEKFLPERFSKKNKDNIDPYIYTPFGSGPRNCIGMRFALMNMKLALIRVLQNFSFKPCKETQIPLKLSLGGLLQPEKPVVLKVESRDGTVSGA
# [24] = in vitro; conditions: cynomolgus monkey, plasma
# Description: Protein binding in cynomolgus monkey plasma assessed as free fraction at 5 uM incubated for 5 hrs by equilibrium dialysis method
# [25] = in vivo; conditions: Sprague-Dawley, rat, po, 10 mg/kg; remark: listed apart in the source
# [26] = in vitro; conditions: dog, plasma
# Description: Protein binding in dog plasma assessed as free fraction at 5 uM incubated for 5 hrs by equilibrium dialysis method
# [27] = in vitro; conditions: mouse, plasma
# Description: Protein binding in mouse plasma assessed as free fraction at 5 uM incubated for 5 hrs by equilibrium dialysis method
# [28] = physchem; conditions: octanol/phosphate buffer, pH 7.4
# Description: Lipophilicity, log D of the compound in octanol/phosphate buffer at pH 7.4 by shake flask method
# [29] = biological target: T3, Serine/threonine-protein kinase mTOR (Homo sapiens, UniProt P42345)
# [30] = in vitro; conditions: human, plasma
# Description: Protein binding in human plasma assessed as free fraction at 5 uM incubated for 5 hrs by equilibrium dialysis method
# [31] = in vitro; conditions: human, hepatocytes
# Description: Intrinsic clearance in human hepatocytes
# [32] = in vivo; conditions: CD-1, mouse, po, 10 mg/kg; remark: listed apart in the source
# [33] = in vitro; conditions: human, Caco-2; remark: listed apart in the source
# Description: Apparent permeability of the compound across basolateral to apical side in human Caco-2 cells at 10 uM
# [34] = biological target: Cytochrome P450 3A4 (Homo sapiens, UniProt P08684)
# Chain of Cytochrome P450 3A4 (P08684 whole entry): as above
# [35] = in vivo; conditions: Beagle, dog, po, 10 mg/kg; remark: listed apart in the source
# [36] = in vitro; conditions: human, human liver microsomes
# [37] = biological target: T3, Serine/threonine-protein kinase mTOR; remark: listed apart in the source
# Description: Inhibition of mTOR (unknown origin) by LANCE Ultra assay
# [38] = in vitro; conditions: dog, hepatocytes
# Description: Intrinsic clearance in dog hepatocytes
# [39] = in vivo; conditions: cynomolgus monkey, iv, 1 mg/kg; remark: listed apart in the source
# Description: Volume of distribution at steady state in cynomolgus monkey at 1 mg/kg, iv
# [40] = in vivo; conditions: CD-1, mouse, plasma, iv, 1 mg/kg
# [41] = tested on: Granta-519; experiment: cells; conditions: Homo sapiens
# Description: Antiproliferative activity against human Granta-519 cells assessed as inhibition of cell growth incubated for 7 days by CellTiter-Glo 2.0 assay
# Chain of Voltage-gated inwardly rectifying potassium channel KCNH2 (Q12809 whole entry): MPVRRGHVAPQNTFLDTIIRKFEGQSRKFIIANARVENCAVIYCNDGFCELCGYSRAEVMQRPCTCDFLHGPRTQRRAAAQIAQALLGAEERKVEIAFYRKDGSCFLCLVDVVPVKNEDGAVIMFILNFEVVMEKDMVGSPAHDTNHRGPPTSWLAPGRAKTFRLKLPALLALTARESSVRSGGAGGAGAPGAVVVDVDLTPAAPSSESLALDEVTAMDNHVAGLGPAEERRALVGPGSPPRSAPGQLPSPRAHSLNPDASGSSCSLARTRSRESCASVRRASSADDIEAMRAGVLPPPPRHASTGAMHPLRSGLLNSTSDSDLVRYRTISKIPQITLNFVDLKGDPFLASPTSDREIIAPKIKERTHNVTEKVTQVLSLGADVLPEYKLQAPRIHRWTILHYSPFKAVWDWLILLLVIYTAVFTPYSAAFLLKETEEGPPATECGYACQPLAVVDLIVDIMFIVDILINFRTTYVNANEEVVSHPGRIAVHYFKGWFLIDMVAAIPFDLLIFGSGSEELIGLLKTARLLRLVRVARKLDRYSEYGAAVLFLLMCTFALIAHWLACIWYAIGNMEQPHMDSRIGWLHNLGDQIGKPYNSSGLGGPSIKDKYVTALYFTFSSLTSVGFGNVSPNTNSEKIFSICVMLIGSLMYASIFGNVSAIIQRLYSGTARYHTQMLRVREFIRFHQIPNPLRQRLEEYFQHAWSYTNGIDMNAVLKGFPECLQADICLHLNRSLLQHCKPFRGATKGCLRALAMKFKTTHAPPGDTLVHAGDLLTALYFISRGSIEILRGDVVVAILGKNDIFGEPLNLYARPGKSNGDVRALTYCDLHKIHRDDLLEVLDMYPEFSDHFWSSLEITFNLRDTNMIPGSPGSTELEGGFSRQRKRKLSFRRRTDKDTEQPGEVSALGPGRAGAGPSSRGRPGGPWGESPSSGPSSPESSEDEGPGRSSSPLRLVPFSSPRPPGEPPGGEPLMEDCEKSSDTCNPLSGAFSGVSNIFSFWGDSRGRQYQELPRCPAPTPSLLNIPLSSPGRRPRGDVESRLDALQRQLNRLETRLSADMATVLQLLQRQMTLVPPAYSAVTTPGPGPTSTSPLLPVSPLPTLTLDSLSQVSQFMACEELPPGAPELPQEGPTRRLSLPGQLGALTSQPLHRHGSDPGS
# Chain of Cytochrome P450 2C9 (P11712 whole entry): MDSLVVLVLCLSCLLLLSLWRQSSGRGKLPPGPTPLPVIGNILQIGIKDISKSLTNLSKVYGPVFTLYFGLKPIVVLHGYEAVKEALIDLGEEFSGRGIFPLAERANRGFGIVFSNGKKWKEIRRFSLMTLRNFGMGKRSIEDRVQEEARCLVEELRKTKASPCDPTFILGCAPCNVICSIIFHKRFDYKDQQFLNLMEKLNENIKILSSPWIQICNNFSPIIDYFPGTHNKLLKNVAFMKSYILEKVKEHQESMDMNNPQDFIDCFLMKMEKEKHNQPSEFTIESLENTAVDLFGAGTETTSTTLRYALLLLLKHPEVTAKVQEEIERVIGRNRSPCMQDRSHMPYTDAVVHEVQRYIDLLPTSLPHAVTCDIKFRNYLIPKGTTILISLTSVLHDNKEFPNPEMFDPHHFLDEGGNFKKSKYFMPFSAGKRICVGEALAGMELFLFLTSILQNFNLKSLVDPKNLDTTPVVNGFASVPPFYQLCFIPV
structure (smiles),measurement,setting,value
C[C@@H]1COCCN1c1cc(N=[S@@](C)(=O)C2CC2)nc(-c2ccnc(N)c2)n1,IC50,[1],> 10 µM
same,half-life,[2],186 min
same,half-life,[3],78 min
same,Papp A→B at 10 µM,[4],17 ×10⁻⁶ cm/s
same,Tmax,[5],11.4 min
same,IC50,[6],> 10 µM
same,Tmax,[7],15 min
same,solubility thermodynamic,[8],1600 µg/mL
same,CLint scaled,[9],22 mL/min/kg
same,Tmax,[10],15 min
same,Tmax,[11],34.8 min
same,half-life,[12],168 min
same,IC50,[13],> 10 µM
same,inhibition in vivo at 30 mg/kg,[14],72%
same,Vd,[15],4.9 L/kg
same,IC50,[16],> 50 µM
same,"fraction unbound at 5 h, 5 µM",[17],0.48
same,Vd,[18],3.6 L/kg
same,CLint scaled,[19],10 mL/min/kg
same,Tmax,[20],49.8 min
same,Cmax,[21],40 nM
same,IC50,[22],> 10 µM
same,"inhibition at 0.5 h, 10 µM",[23],0.96%
same,"fraction unbound at 5 h, 5 µM",[24],0.54
same,Cmax,[25],5560 nM
same,"fraction unbound at 5 h, 5 µM",[26],0.55
same,"fraction unbound at 5 h, 5 µM",[27],0.33
same,logD,[28],1.62
same,IC50,[29],8.38 µM
same,"fraction unbound at 5 h, 5 µM",[30],0.45
same,CLint scaled,[31],8 mL/min/kg
same,Cmax,[32],3160 nM
same,Papp B→A at 10 µM,[33],34 ×10⁻⁶ cm/s
same,IC50,[34],> 10 µM
same,Cmax,[35],1930 nM
same,"CLint scaled at 0.75 h, 1 µM",[36],2.3 mL/min/kg
same,IC50,[37],0.968 µM
same,CLint scaled,[38],6 mL/min/kg
same,Vd,[39],2 L/kg
same,clearance,[40],69 mL/min/kg
same,EC50,[41],0.448 µM

# From ChEMBL document CHEMBL6087433, “Discovery of ART0380, a Potent and Selective ATR Kinase Inhibitor Undergoing Phase 2 Clinical Studies for the Treatment of Advanced or Metastatic Solid Cancers” (J Med Chem, 2024)
